# Measurements from article PMC8119466, “A screen of FDA-approved drugs identifies inhibitors of protein tyrosine phosphatase 4A3 (PTP4A3 or PRL-3)” (Scientific Reports, 2021).
# Read-outs that look alike come from different tables or passages of the source.
# Tests used:
# PTPN22 = molecular target: T1, PTPN22 (Homo sapiens, UniProt Q9Y2R2); experiment: PhosphataseProfiler (Eurofins) selectivity panel; assay type: biochemical; details: PTPN22, 25µM
# T1 construct: purchased Eurofins PP260
# Procedure: (§4) Inhibition selectivity for PRLs over a panel of other phosphatases was determined using PhosphataseProfiler (Eurofins, Cat # PP260).
# HEK293T cells [1] = experiment: Click-IT Edu cell proliferation assay, HEK293T; assay type: cell-based, human; details: 100 µM Salirasib or 25 µM Candesartan, 24 and 48 hr
# Procedure: (§1) The cell proliferation assay was performed using the Click-IT Edu cell proliferation kit from (Thermo Fisher, Cat # C10419) according to the manufacturer’s protocol. Briefly, HEK293T, HCT116 and SW480 cells were plated in 6 well dishes at 4 × 10^5 cell seeding density and treated with DMSO, Candesartan and Salirasib at the indicated concentrations. Edu was added 2 h prior to collecting the cells at 24 h and 48 h time points and the assay was performed according to the instructions from the manual. Flow cytometry with AlexaFluor647 conjugated azide dye was used to determine the cellular proliferation and DAPI was used for the DNA content.
# HEK293T cells [2] = experiment: Scratch (migration) assay, HEK293T transfected with PRL-3 or empty vector; assay type: cell-based, human; details: compared to DMSO; for cellular migration in control cells: HEK293T empty vector, 24 h; for cellular migration in PRL-3 overexpressing cells: HEK293T transfected with PRL-3, 24 h
# Procedure: (§2) pENTR-PRL-3 (previously described[51]) was cloned into pLKO-CMV-puro using LR clonase (Thermofisher, 11,791,019) according to manufacturer’s directions. pLKO-CMV empty vector (EV) and pLKO-CMV:PRL-3 were transfected into HEK293T using Lipofectamine 3000 (ThermoFisher, L3000015) according to manufacturer’s protocol. Transfected cells were selected with 1 µg/mL puromycin in complete media to establish the cell line, then were maintained under 0.5 µg/mL puromycin in complete media. For PRL-3 knockdown, pLKO.1-scrambled shRNA and pLKO.1-PRL-3 shRNA[51] plasmids were transfected into HCT116 cells using Lipofectamine 3000 (Thermo Fisher, Cat # L3000015) according to the manufacturer’s directions. Cells were selected for 48 h in 1 µg/mL puromycin before use in assays.
# (§3) Cells were seeded into duplicate wells of a 48 well plates at a density of 2 × 10^5 cells per well for HEK293T or 4 × 10^5 for HCT116 and SW480. Cells were recovered overnight and were scratched using a p20 pipette tip the following day. Compounds were added at the concentrations indicated. Images were obtained immediately after the scratch and after a 24 h incubation with the drug on an Evos FL inverted microscope (ThermoFisher). The area within the scratch was calculated using ImageJ. The area migrated was measured as the difference in wound area at 0 h and 24 h and the percent change in migration was calculated by dividing the difference in wound area of treatment by the difference in wound area of the control.
# PTP1B = molecular target: T2, PTP1B (Homo sapiens, UniProt P18031); experiment: PhosphataseProfiler (Eurofins) selectivity panel; assay type: biochemical; details: 25µM
# T2 construct: purchased Eurofins PP260
# Procedure: as §4
# recombinant PRL-3 = molecular target: T3, recombinant PRL-3 (Homo sapiens, UniProt O75365); experiment: In vitro phosphatase assay (DiFMUP hydrolysis), PRL-3; assay type: biochemical; details: for IC50: DiFMUP at KM, read-out: Calculated IC50, PRL-3 phosphatase activity; for mode of inhibition (Lineweaver-Burke analysis): versus DiFMUP substrate, reduce apparent Vmax, do not affect KM; for % Phosphatase Activity (compared to DMSO) PRL-3: FDA-approved drug screen
# T3 construct: 6xHis (N, cleaved yes); made in house; host or cells: E. coli One Shot BL21 Star
# recombinant PRL-1 = molecular target: T4, recombinant PRL-1 (Homo sapiens, UniProt Q93096); experiment: In vitro phosphatase assay (DiFMUP hydrolysis), PRL-1; assay type: biochemical; details: for IC50: DiFMUP at KM, read-out: Calculated IC50, PRL-1 phosphatase activity; for % Phosphatase Activity (compared to DMSO) PRL-1: FDA-approved drug screen
# T4 construct: 6xHis (N, cleaved yes); made in house; host or cells: E. coli One Shot BL21 Star
# T4 sequence (Q93096 1-173): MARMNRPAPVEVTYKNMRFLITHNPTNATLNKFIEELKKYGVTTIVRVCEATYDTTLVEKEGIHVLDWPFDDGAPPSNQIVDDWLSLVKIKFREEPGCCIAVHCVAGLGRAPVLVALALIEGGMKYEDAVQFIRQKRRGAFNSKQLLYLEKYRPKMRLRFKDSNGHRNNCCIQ
# SHP2 = molecular target: T5, SHP2 (Homo sapiens, UniProt Q06124); experiment: PhosphataseProfiler (Eurofins) selectivity panel; assay type: biochemical; details: SHP2, 25µM
# T5 construct: purchased Eurofins PP260
# Procedure: as §4
# VHR = molecular target: T6, VHR (Homo sapiens, UniProt P51452); experiment: PhosphataseProfiler (Eurofins) selectivity panel; assay type: biochemical; details: 25µM
# T6 construct: purchased Eurofins PP260
# Procedure: as §4
# PTPRM = molecular target: T7, PTPRM (Homo sapiens, UniProt P28827); experiment: PhosphataseProfiler (Eurofins) selectivity panel; assay type: biochemical; details: 25µM
# T7 construct: purchased Eurofins PP260
# Procedure: as §4
# SW480 cells [3] = experiment: Scratch (migration) assay, SW480; assay type: cell-based, human; details: 24 h, 100 µM Salirasib or 25 µM Candesartan, vs DMSO
# Procedure: as §3
# PTPbeta = molecular target: T8, PTPbeta (Homo sapiens, UniProt P23467); experiment: PhosphataseProfiler (Eurofins) selectivity panel; assay type: biochemical; details: 25µM
# T8 construct: purchased Eurofins PP260
# Procedure: as §4
# HCT116 cells [4] = experiment: Scratch (migration) assay, HCT116; assay type: cell-based, human; details: 24 h, 100 µM Salirasib or 25 µM Candesartan
# Procedure: as §2, §3
# recombinant PRL-2 = molecular target: T9, recombinant PRL-2 (Homo sapiens, UniProt Q12974); experiment: In vitro phosphatase assay (DiFMUP hydrolysis), PRL-2; assay type: biochemical; details: for % Phosphatase Activity (compared to DMSO) PRL-2: FDA-approved drug screen;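 as to all read-outs here: PRL-2 activity read as DiFMUP hydrolysis after 20 min at room temperature with drug, enzyme first pre-reduced at 4 °C for 20 min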
# T9 construct: 6xHis (N, cleaved yes); made in house; host or cells: E. coli One Shot BL21 Star
# T9 sequence (Q12974 1-167): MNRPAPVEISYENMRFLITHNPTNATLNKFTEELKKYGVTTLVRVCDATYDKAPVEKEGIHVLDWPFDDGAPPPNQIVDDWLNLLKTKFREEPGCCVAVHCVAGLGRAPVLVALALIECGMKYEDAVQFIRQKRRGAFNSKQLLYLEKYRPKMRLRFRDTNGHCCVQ
# SHP1 = molecular target: T10, SHP1 (Homo sapiens, UniProt P29350); experiment: PhosphataseProfiler (Eurofins) selectivity panel; assay type: biochemical; details: SHP1, 25µM
# T10 construct: purchased Eurofins PP260
# Procedure: as §4
# ACP1 (LMPTP-A) = molecular target: T11, ACP1 (LMPTP-A) (Homo sapiens, UniProt P24666); experiment: PhosphataseProfiler (Eurofins) selectivity panel; assay type: biochemical; details: 25µM
# T11 construct: purchased Eurofins PP260
# Procedure: (§5) Briefly, protein was diluted in reaction buffer and allowed to incubate at 4 °C for 20 min to allow for full reduction of the active site. DiFMUP, drug, and protein were added, and plates were incubated for 20 min at room temperature. Fluorescence intensities were measured on a Cytation 5 plate reader (Biotek) at an EX:360 nm and EM:460 nm. […] Inhibition selectivity for PRLs over a panel of other phosphatases was determined using PhosphataseProfiler (Eurofins, Cat # PP260).
# SW480 cells [5] = experiment: Click-IT Edu cell proliferation assay, SW480; assay type: cell-based, human; details: 100 µM Salirasib or 25 µM Candesartan, 24 and 48 hr
# Procedure: as §1
# HEK293T cells [6] = experiment: MTT viability assay; assay type: cell-based, human; details: 16 h
# Procedure: Cells were seeded into duplicate wells of a 96 well plate at a density of 2 × 10^4 cells per well and allowed to recover for 24 h. Cells were then treated with drug or DMSO at the indicated concentrations for 16 h. Following drug treatment, 10 μL of 5 mg/ml MTT (Sigma, M5655) was added to each well and cells were incubated for 4 h. Finally, media were removed, and the dye was solubilized in 100 μL of 0.1 M HCl in isopropanol. Absorbance was measured at 570 nm and 690 nm with final absorbance measurements as 570–690 nm.
# HCT116 cells [7] = experiment: Click-IT Edu cell proliferation assay, HCT116; assay type: cell-based, human; details: HCT-116; 100 µM Salirasib or 25 µM Candesartan; 24 and 48 hr
# Procedure: as §1
# ACP1 (LMPTP-B) = molecular target: T12, ACP1 (LMPTP-B) (Homo sapiens, UniProt P24666); experiment: PhosphataseProfiler (Eurofins) selectivity panel; assay type: biochemical; details: 25µM
# T12 construct: purchased Eurofins PP260
# Procedure: as §5
# MKP5 = molecular target: T13, MKP5 (Homo sapiens, UniProt Q9Y6W6); experiment: PhosphataseProfiler (Eurofins) selectivity panel; assay type: biochemical; details: MKP5, 25µM
# T13 construct: purchased Eurofins PP260
# Procedure: as §4
# [8] = listed as Candesartan Cilexetil
# T3 sequence (O75365 whole entry): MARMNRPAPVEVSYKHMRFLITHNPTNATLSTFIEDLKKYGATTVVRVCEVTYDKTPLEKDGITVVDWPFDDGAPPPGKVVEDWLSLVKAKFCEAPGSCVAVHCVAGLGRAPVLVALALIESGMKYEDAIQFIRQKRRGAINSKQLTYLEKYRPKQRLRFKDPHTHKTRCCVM
# T12 sequence (P24666 1-158 isoform P24666-2): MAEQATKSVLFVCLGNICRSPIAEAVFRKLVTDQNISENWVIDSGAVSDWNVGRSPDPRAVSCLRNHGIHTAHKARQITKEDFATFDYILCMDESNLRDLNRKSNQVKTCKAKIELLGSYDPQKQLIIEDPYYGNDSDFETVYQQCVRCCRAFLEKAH
# T6 sequence (P51452 whole entry): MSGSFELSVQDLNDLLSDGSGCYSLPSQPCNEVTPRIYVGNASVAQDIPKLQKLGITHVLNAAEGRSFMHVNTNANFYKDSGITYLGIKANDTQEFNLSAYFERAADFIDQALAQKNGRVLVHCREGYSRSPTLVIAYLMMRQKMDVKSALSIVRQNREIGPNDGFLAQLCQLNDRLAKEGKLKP
# T8 sequence (P23467 23-1997): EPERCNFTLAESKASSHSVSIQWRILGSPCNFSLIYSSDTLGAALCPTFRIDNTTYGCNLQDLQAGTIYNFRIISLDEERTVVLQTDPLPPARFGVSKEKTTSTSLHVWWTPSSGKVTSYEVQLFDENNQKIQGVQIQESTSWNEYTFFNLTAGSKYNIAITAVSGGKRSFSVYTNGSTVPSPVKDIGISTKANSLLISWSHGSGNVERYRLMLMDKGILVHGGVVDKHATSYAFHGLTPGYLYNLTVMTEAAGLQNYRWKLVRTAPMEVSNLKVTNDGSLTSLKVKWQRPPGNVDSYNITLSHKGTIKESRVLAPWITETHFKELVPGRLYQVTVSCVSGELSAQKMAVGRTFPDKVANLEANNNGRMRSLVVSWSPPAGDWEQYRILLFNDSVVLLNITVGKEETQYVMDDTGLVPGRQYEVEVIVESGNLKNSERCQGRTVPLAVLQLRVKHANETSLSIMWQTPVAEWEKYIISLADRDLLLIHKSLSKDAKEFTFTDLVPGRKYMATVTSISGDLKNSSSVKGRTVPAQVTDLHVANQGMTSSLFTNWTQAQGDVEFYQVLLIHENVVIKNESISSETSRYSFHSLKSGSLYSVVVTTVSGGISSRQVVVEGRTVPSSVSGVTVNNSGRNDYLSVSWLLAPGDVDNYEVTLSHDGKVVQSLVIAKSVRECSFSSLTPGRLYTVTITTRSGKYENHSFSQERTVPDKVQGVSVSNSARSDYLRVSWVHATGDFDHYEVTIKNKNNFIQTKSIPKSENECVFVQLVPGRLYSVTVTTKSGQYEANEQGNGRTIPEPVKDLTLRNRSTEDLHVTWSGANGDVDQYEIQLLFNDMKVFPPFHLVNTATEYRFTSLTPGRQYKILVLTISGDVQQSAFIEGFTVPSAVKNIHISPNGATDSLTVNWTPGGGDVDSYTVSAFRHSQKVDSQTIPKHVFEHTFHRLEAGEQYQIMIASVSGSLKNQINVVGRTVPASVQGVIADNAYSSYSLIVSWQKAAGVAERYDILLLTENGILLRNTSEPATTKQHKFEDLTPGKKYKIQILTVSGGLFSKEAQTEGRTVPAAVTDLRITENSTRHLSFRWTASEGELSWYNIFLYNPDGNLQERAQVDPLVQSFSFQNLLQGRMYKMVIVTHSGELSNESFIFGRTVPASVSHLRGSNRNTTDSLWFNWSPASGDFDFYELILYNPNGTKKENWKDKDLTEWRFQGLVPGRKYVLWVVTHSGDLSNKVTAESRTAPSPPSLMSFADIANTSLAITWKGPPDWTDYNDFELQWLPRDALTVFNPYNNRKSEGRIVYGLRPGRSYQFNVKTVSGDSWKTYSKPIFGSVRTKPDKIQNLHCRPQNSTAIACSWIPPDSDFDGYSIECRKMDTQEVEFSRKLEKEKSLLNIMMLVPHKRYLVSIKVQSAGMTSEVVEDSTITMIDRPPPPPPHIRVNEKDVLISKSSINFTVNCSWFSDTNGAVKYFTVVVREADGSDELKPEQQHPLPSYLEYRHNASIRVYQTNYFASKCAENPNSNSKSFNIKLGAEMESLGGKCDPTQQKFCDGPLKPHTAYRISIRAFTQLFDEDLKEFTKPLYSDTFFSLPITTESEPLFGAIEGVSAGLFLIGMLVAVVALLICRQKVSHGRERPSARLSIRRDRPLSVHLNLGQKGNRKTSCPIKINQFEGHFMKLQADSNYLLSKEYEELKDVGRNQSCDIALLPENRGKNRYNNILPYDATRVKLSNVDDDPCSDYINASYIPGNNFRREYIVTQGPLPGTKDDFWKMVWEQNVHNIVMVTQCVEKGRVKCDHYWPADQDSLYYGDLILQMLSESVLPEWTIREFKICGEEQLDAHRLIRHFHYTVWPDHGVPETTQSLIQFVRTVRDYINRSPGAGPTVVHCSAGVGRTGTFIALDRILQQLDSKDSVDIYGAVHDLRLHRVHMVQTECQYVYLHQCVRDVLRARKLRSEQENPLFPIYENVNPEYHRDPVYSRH
# T11 sequence (P24666 whole entry): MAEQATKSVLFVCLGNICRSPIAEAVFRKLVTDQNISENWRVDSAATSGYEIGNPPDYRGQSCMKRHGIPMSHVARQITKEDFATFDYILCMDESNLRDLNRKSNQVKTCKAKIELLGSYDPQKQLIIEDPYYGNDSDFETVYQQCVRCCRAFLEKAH
# T1 sequence (Q9Y2R2 whole entry): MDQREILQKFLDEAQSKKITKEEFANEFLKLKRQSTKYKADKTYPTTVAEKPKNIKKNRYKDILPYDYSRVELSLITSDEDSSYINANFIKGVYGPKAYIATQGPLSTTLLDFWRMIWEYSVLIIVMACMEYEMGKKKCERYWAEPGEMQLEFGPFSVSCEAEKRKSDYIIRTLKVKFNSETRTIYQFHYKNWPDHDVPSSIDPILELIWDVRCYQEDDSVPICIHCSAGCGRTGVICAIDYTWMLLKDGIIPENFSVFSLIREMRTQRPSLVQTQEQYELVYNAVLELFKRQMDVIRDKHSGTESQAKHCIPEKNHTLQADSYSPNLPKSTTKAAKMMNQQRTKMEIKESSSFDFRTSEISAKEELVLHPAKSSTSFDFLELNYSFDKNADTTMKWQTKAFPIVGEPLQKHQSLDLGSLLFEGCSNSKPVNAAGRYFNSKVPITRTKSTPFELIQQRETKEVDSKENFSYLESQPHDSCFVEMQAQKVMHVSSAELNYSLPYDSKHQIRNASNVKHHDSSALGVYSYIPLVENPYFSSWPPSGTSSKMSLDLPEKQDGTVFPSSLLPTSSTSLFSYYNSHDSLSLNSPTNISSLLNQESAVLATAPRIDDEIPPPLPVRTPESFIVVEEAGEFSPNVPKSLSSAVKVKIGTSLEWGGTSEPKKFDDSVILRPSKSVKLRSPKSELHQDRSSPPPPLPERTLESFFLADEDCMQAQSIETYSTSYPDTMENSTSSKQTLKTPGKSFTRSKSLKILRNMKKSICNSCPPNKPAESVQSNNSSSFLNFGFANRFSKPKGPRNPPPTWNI
# T13 sequence (Q9Y6W6 whole entry): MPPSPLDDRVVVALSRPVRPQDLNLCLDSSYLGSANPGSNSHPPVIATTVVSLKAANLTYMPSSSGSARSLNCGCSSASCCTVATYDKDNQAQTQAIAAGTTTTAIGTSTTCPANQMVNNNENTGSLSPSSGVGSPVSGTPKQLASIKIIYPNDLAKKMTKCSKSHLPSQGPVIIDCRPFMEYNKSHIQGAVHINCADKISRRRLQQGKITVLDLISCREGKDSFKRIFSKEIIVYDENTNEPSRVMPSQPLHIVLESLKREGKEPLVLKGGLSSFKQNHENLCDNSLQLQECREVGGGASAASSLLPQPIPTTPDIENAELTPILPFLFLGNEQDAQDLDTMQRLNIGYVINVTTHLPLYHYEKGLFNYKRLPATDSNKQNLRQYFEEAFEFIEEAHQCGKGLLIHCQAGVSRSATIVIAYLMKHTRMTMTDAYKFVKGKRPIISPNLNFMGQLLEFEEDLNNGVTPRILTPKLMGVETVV
# T5 sequence (Q06124 whole entry): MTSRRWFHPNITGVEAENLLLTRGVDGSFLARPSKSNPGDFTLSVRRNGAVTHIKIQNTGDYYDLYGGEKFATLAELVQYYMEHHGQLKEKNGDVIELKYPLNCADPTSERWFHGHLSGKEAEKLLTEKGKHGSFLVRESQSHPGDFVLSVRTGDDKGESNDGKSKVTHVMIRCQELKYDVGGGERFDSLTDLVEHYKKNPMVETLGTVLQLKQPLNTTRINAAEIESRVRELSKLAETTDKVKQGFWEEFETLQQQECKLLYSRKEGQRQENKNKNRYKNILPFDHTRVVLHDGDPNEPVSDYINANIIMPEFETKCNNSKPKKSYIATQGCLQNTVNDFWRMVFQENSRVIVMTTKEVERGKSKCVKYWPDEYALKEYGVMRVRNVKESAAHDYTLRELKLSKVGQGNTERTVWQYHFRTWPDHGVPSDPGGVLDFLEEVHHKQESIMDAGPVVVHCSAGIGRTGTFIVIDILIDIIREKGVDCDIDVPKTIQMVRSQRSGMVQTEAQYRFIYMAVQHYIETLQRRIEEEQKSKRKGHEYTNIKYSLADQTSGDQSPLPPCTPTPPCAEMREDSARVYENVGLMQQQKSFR
# T2 sequence (P18031 whole entry): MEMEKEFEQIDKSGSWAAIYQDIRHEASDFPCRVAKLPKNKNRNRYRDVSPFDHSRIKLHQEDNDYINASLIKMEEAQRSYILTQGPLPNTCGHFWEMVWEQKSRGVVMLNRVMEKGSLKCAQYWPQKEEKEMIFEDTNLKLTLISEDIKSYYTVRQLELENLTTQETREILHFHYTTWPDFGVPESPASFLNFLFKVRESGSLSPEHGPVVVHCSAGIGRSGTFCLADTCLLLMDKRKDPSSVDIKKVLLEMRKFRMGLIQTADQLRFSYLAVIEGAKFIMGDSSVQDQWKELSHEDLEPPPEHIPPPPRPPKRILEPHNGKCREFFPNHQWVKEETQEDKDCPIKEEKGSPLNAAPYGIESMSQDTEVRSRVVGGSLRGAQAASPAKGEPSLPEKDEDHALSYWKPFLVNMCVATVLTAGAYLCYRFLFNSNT
smiles,measurement,setting,value
CC(C)=CCC/C(C)=C/CC/C(C)=C/CSc1ccccc1C(=O)O [Salirasib],Percent Phosphatase Activity (compared to DMSO),PTPN22,129%
same,cell cycle (EdU staining),HEK293T cells [1],did not significantly impact
same,cellular migration in control cells,HEK293T cells [2],no corresponding reduction in migration
same,cellular migration in PRL-3 overexpressing cells,HEK293T cells [2],significant inhibition of cellular migration
same,Percent Phosphatase Activity (compared to DMSO),PTP1B,114%
same,IC50,recombinant PRL-3; 2.5 µM protein,27 ± 3 µM
same,mode of inhibition (Lineweaver-Burke analysis),recombinant PRL-3,non-competitive inhibitors
same,IC50,recombinant PRL-1; 2.5 µM protein,53 ± 5 µM
same,% Phosphatase Activity (compared to DMSO) PRL-1,recombinant PRL-1,26%
same,Percent Phosphatase Activity (compared to DMSO),SHP2,103%
same,Percent Phosphatase Activity (compared to DMSO),VHR,97%
same,Percent Phosphatase Activity (compared to DMSO),PTPRM,111%
same,inhibition at 100 µM,"SW480 cells [3]; Homo sapiens, SW480",> 30%
same,Percent Phosphatase Activity (compared to DMSO),PTPbeta,91%
same,migration of HCT116 cells with PRL-3 knock-down (PRL-3 shRNA),HCT116 cells [4],significantly reduced migration
same,inhibition at 100 µM,"HCT116 cells [4]; Homo sapiens, HCT-116, vs DMSO",> 30%
same,% Phosphatase Activity (compared to DMSO) PRL-2,recombinant PRL-2,6%
same,Percent Phosphatase Activity (compared to DMSO),SHP1,113%
same,Percent Phosphatase Activity (compared to DMSO),ACP1 (LMPTP-A),96%
same,cell cycle (EdU staining),SW480 cells [5],did not significantly impact
same,viability (MTT),"HEK293T cells [6]; drug doses 1 to 100 µM, normalized to 1% DMSO",no effect on the viability
same,cell cycle (EdU staining),HCT116 cells [7],did not significantly impact
same,Percent Phosphatase Activity (compared to DMSO),ACP1 (LMPTP-B),106%
same,Percent Phosphatase Activity (compared to DMSO),MKP5,106%
CCOc1nc2cccc(C(=O)O)c2n1Cc1ccc(-c2ccccc2-c2nnn[nH]2)cc1 [Candesartan],Percent Phosphatase Activity (compared to DMSO),PTPN22,136%
same,cell cycle (EdU staining),HEK293T cells [1],did not significantly impact
same,cellular migration in control cells,HEK293T cells [2],no corresponding reduction in migration
same,cellular migration in PRL-3 overexpressing cells,HEK293T cells [2],significant inhibition of cellular migration
same,Percent Phosphatase Activity (compared to DMSO),PTP1B,109%
same,% Phosphatase Activity (compared to DMSO) PRL-3,recombinant PRL-3,82%
same,% Phosphatase Activity (compared to DMSO) PRL-3,recombinant PRL-3; [8],-3.55%
same,IC50,recombinant PRL-3; […] protein,28 ± 4 µM
same,mode of inhibition (Lineweaver-Burke analysis),recombinant PRL-3,non-competitive inhibitors
same,% Phosphatase Activity (compared to DMSO) PRL-1,recombinant PRL-1,106%
same,% Phosphatase Activity (compared to DMSO) PRL-1,recombinant PRL-1; [8],6.33%
same,IC50,recombinant PRL-1; […] protein,69 ± 8 µM
same,Percent Phosphatase Activity (compared to DMSO),SHP2,104%
same,Percent Phosphatase Activity (compared to DMSO),VHR,87%
same,Percent Phosphatase Activity (compared to DMSO),PTPRM,107%
same,inhibition of migration of SW480 cells,SW480 cells [3],> 30%
same,Percent Phosphatase Activity (compared to DMSO),PTPbeta,85%
same,migration of HCT116 cells with PRL-3 knock-down (PRL-3 shRNA),HCT116 cells [4],no additional impact on migration
same,inhibition of migration of HCT116 cells,HCT116 cells [4]; vs DMSO,> 30%
same,% Phosphatase Activity (compared to DMSO) PRL-2,recombinant PRL-2,92%
same,% Phosphatase Activity (compared to DMSO) PRL-2,recombinant PRL-2; [8],13%
same,IC50,"recombinant PRL-2; […] protein, DiFMUP at KM, read-out: Calculated IC50, PRL-2 phosphatase activity",80 ± 15 µM
same,Percent Phosphatase Activity (compared to DMSO),SHP1,116%
same,Percent Phosphatase Activity (compared to DMSO),ACP1 (LMPTP-A),97%
same,cell cycle (EdU staining),SW480 cells [5],did not significantly impact
same,viability (MTT),HEK293T cells [6]; 100 µM,viability dropped significantly
same,viability (MTT),HEK293T cells [6]; up to 50 µM,insignificant effect on viability
same,cell cycle (EdU staining),HCT116 cells [7],did not significantly impact
same,Percent Phosphatase Activity (compared to DMSO),ACP1 (LMPTP-B),113%
same,Percent Phosphatase Activity (compared to DMSO),MKP5,99%
